{"source": "paper PMC8900053", "about": "“Selumetinib in combination with dexamethasone for the treatment of relapsed/refractory RAS-pathway mutated paediatric and adult acute lymphoblastic leukaemia (SeluDex): study protocol for an international, parallel-group, dose-finding with expansion phase I/II trial” (BMJ Open, 2022)", "origin": "cited, not measured here", "key": {"[1]": {"conditions": "human, in vivo"}, "[2]": {"conditions": "early information from clinical studies"}, "[3]": {"conditions": "common side effect of selumetinib"}}, "data": [{"compound": "C[C@@H]1C[C@H]2[C@@H]3CCC4=CC(=O)C=C[C@]4(C)[C@@]3(F)[C@@H](O)C[C@]2(C)[C@@]1(O)C(=O)CO", "note": "[dexamethasone]", "values": [{"measurement": "Tolerability of pulsed dosing versus continuous dosing", "setting": "[1]", "value": "better tolerated"}]}, {"compound": "Cn1cnc2c(F)c(Nc3ccc(Br)cc3Cl)c(C(=O)NOCCO)cc21", "note": "[selumetinib]", "values": [{"measurement": "Chance that blurred vision may affect daily living", "setting": "blurred vision mild or moderate in all reported previous cases", "value": "about 5%"}, {"measurement": "Being sick (people affected)", "setting": "[3]", "value": "~30", "unit": "%"}, {"measurement": "Diarrhoea (people affected)", "setting": "[3]", "value": "~50", "unit": "%"}, {"measurement": "Feeling sick (people affected)", "setting": "[3]", "value": "~50", "unit": "%"}, {"measurement": "Feeling tired or weak (people affected)", "setting": "[3]", "value": "~40", "unit": "%"}, {"measurement": "Shortness of breath (people affected)", "setting": "[3]", "value": "~20", "unit": "%"}, {"measurement": "Skin rash, which may be itchy (people affected)", "setting": "[3]", "value": "~70", "unit": "%"}, {"measurement": "Swelling of the hands or feet (people affected)", "setting": "[3]", "value": "~30", "unit": "%"}, {"measurement": "Tolerability", "setting": "more than 3,080 people have had the drug so far", "value": "very well tolerated"}, {"measurement": "Swelling of the face or extremities", "setting": "patients receiving selumetinib", "value": "commonly reported"}, {"measurement": "Skin rash cases that can be more serious and require treatment", "setting": "share of skin rash cases, majority of events are mild", "value": "around 10%"}, {"measurement": "Blood levels of selumetinib in people of Asian origin versus non-Asian subjects", "setting": "[2]", "value": "higher"}]}]}
